The structures appear in SMILES notation. Like-named read-outs stand apart in the source and are kept apart here.

The IC50 is the concentration at which inhibition is half-maximal. In general, Ki refers to a measure of affinity in units of concentration, obtained from inhibition or displacement.

Assay [1] concerns human platelet rich plasma (PRP). As to the kind of experiment: ADP induced platelet aggregation assay.
Assay [2] has as its target T1, cloned human P2Y1 receptors (Homo sapiens (Human), UniProt P47900). As to the kind of experiment: Binding Assay A: membrane binding assay, [33P] 2MeS-ADP. The conditions noted are these: values marked *; WGA FlashPlate, [33P] 2MeS-ADP displacement; read-out: P2Y1 Ki (nM) *Using binding assay A. The source says:
A membrane binding assay was used to identify inhibitors of [^33P] […] The cDNA clone for human P2Y1 was obtained from Incyte Pharmaceuticals and its sequence confirmed by established techniques (for a compendium of techniques used see Ausubel, F. et al. Current Protocols in Molecular Biology, John Wiley and Sons, NY, N.Y. (1995)). The essential coding sequences were subcloned into pCDNA 3.1 (Invitrogen) to produce a P2Y1 expression construct. This construct was then transfected into the human embryonic kidney cell line HEK-293 and stable transfectants selected in GENETICIN® (G418 sulfate; Life Technologies). […] Membranes were prepared by growing HEK293 #49 in 150 mm dishes in DMEM/10% FBS in the presence of 1 mg/ml G418 until cells were 80-90% confluent. Plates were then washed with cold (4° C.) D-PBS twice and cells harvested by scraping into 10 mL D-PBS. Cells were pelleted by centrifugation (1,000 g, 10 min, 4° C.) and the resulting pellet resuspended in Lysis Buffer (10 mM Tris (7.4), 5 mM MgCl2 containing Complete protease inhibitor cocktail (Roche Cat #1873580) as recommended by the manufacturer). The suspension was then homogenized in a Dounce homogenizer (10-15 strokes; B pestle, on ice) and the homogenate spun at 1,000 g, 4° C., 5 min to pellet large debris. The supernatant was centrifuged at 150,000 g, 4° C., for 1 hour and the resulting membrane pellet resuspended in 0.5-1 mL of Buffer B (15 mM HEPES (7.4), 145 mM NaCl, 0.1 mM MgCl2, 5 mM EDTA, 5 mM KCl) and stored at −70° C. until used.
Binding reactions were performed in WGA FLASHPLATE®s (PerkinElmer Life Sciences, Cat # SMP105A) in a volume of 200 μL containing ˜45 fmol of P2Y1 receptor (5 μg of total protein), 0.5 nM [^33P] […] Reactions were allowed to proceed to completion at room temperature for 1 hour and then the aqueous solution aspirated. Plates were sealed and the residual [^33P] bound to the plate determined by scintillation counting.

Assay [3] addresses T1, cloned human P2Y1 receptors. As to the kind of experiment: Binding Assay B: Scintillation Proximity Assay (SPA) for P2Y1 binding. The conditions noted are these: SPA, [33P] 2MeS-ADP displacement; read-out: P2Y1 Ki (nM) using binding assay B. In short, it runs like this: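 Scintillation proximity readout of 0.3 nM [^33P] tracer displacement from receptor membranes (~15 fmol receptor, 1.7 μg protein). Binding ran 1 h at room temperature to completion; plates were then centrifuged and aqueous phase aspirated before counting.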
On the technique in general: In a scintillation proximity assay essentially only radioactivity close to the scintillant gives light.

Where [4] appears, read: Homo sapiens, Platelet, read-out: PA IC50 (μM) @ 10 μM ADP, platelet aggregation induced by 10 μM ADP, human PRP.

T1 sequence (P47900 whole entry): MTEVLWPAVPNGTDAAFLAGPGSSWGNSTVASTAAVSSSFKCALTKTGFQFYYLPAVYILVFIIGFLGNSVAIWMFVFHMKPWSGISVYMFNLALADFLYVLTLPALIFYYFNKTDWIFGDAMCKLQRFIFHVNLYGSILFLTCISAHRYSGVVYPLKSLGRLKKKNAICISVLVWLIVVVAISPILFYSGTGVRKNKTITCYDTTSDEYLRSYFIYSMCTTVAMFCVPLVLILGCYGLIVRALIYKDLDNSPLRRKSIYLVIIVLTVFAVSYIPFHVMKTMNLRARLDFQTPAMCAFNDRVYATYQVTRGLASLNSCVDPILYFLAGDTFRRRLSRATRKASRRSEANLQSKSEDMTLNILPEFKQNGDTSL

For `CC(C)N1CCC2(CC1)CN(c1ccccc1NC(=O)Nc1ccc(OC(F)(F)F)cc1)c1ccccc12` [Comparator 1, reference compound], the IC50 in assay [1] (setting [4]) amounted to 29.2 µM. Besides, the Ki in assay [2] was 300 nM.

Regarding `CC(C)CN1CCC2(CC1)CN(c1ccccc1NC(=O)Nc1ccc(OC(F)(F)F)cc1)c1ccccc12` [Comparator 2, reference compound], the IC50 in assay [1] (setting [4]) came out at 8.8 µM. Moreover, in assay [2], the Ki was 20.2 nM.

With `CC(C)N1CCC2(CC1)CN(c1ncccc1NC(=O)Nc1ccc(OC(F)(F)F)cc1)c1ccccc12` [Comparator 3, reference compound], the inhibition constant Ki in assay [2] came out at 5300 nM.

For `CC(C)(C)CN1CCC2(CC1)CN(c1ccccc1NC(=O)Nc1ccc(OC(F)(F)F)cc1)c1c(O)cccc12` [Example 1, 1-(2-(7-Hydroxy-1′-neopentylspiro[indoline-3,4′-piperidine]-1-yl)phenyl)-3-(4-(trifluoromethoxy)phenyl)urea], the IC50 in assay [1] (setting [4]) came out at 1.7 µM. Moreover, the Ki in assay [2] was determined as 10.3 nM.

Regarding `CC(C)(C)CN1CCC2(CC1)CN(c1ncccc1NC(=O)Nc1ccc(C(C)(C)C)cc1)c1c(O)ccc(C(F)(F)F)c12` [Example 13, 1-(4-tert-Butylphenyl)-3-(2-(7-hydroxy-1′-neopentyl-4-(trifluoromethyl)spiro[indoline-3,4′-piperidine]-1-yl)pyridin-3-yl)urea], in assay [1] (setting [4]), the IC50 was determined as 0.5 µM. Further, the Ki in assay [2] amounted to 3.3 nM.

With `CC(C)(C)CN1CCC2(CC1)CN(c1ccccc1NC(=O)Nc1nc3ccc(Cl)cc3s1)c1c(O)ccc(F)c12` [Example 33, 1-(2-(7-Hydroxy-4-fluoro-1′-neopentylspiro[indoline-3,4′-piperidine]-1-yl)phenyl)-3-(6-chlorobenzo[d]thiazol-2-yl)urea], the IC50 in assay [1] (setting [4]) turned out to be 0.4 µM. In assay [2], the Ki is 3.7 nM.

As to `CC(C)(C)CN1CCC2(CC1)CN(c1ccccc1NC(=O)Nc1csc(C(F)(F)F)n1)c1c(O)cc(F)c(-c3ccc(C(F)(F)F)nc3)c12` [Example 159, 1-(2-(5-Fluoro-7-hydroxy-1′-neopentyl-4-(6-(trifluoromethyl)pyridin-3-yl)spiro[indoline-3,4′-piperidin]-1-yl)phenyl)-3-(2-(trifluoromethyl)thiazol-4-yl)urea], the inhibitory constant (Ki) in assay [3] came out at 281 nM. Also, the IC50 in assay [1] (setting [4]) is 0.1 µM.

`CC(C)(C)CN1CCC2(CC1)CN(c1ccccc1NC(=O)Nc1ccc(OC(F)(F)F)cc1)c1c(O)cc(F)c(-c3ccc(C(F)(F)F)nc3)c12` [Example 160, 1-(2-(5-Fluoro-7-hydroxy-1′-neopentyl-4-(6-(trifluoromethyl)pyridin-3-yl)spiro[indoline-3,4′-piperidin]-1-yl)phenyl)-3-(4-(trifluoromethoxy)phenyl)urea]: in assay [3], the Ki worked out at 199 nM. Also, in assay [1] (setting [4]), the IC50 came to 0.1 µM.

In the case of `CC(C)(C)CN1CCC2(CC1)CN(c1ccccc1NC(=O)Nc1nc3ccc(F)cc3s1)c1c(O)cc(F)c(-c3ccc(C(F)(F)F)nc3)c12` [Example 161, 1-(2-(5-Fluoro-7-hydroxy-1′-neopentyl-4-(6-(trifluoromethyl)pyridin-3-yl)spiro[indoline-3,4′-piperidin]-1-yl)phenyl)-3-(6-fluorobenzo[d]thiazol-2-yl)urea], in assay [3], the Ki is 41.1 nM. In addition, in assay [1] (setting [4]), the IC50 was found to be 0.2 µM.

Consider `CC(C)(C)CN1CCC2(CC1)CN(c1ccccc1NC(=O)Nc1nc3ccc(Cl)cc3s1)c1c(O)cc(F)c(-c3ccc(C(F)(F)F)nc3)c12` [Example 162, 1-(6-Chlorobenzo[d]thiazol-2-yl)-3-(2-(5-fluoro-7-hydroxy-1′-neopentyl-4-(6-(trifluoromethyl)pyridin-3-yl)spiro[indoline-3,4′-piperidin]-1-yl)phenyl)urea], for which, in assay [3], the inhibition constant Ki amounted to 65.5 nM. For the same molecule, the IC50 in assay [1] (setting [4]) stood at 0.5 µM.

For the molecule `CC(C)(C)CN1CCC2(CC1)CN(c1ccccc1NC(=O)Nc1nc3ccc(Cl)nc3s1)c1c(O)cc(F)c(-c3ccc(Cl)cc3)c12` [Example 164, 1-(2-(4-(4-Chlorophenyl)-5-fluoro-7-hydroxy-1′-neopentylspiro[indoline-3,4′-piperidin]-1-yl)phenyl)-3-(5-chlorothiazolo[5,4-b]pyridin-2-yl)urea], in assay [3], the Ki was determined as 24.9 nM. Also, the IC50 in assay [1] (setting [4]) came out at 0.6 µM.

On to `CC(C)(C)CN1CCC2(CC1)CN(c1ccccc1NC(=O)Nc1nc3ccc(F)cc3s1)c1c(O)cc(F)c(-c3ccc(Cl)cc3)c12` [Example 165, 1-(2-(4-(4-Chlorophenyl)-5-fluoro-7-hydroxy-1′-neopentylspiro[indoline-3,4′-piperidin]-1-yl)phenyl)-3-(6-fluorobenzo[d]thiazol-2-yl)urea], for which the Ki in assay [3] stood at 56.2 nM. For the same molecule, the IC50 in assay [1] (setting [4]) was 0.3 µM.

As to `CC(C)(C)CN1CCC2(CC1)CN(c1ccccc1NC(=O)Nc1nc3ccc(Cl)nc3s1)c1c(O)ccc(Cl)c12` [Example 166, 1-(2-(4-Chloro-7-hydroxy-1′-neopentylspiro[indoline-3,4′-piperidine]-1-yl)phenyl)-3-(5-chlorothiazolo[5,4-b]pyridin-2-yl)urea], the Ki in assay [3] amounted to 6.8 nM. In addition, the IC50 in assay [1] (read-out: PA IC50 (μM) @ 10 μM ADP, platelet aggregation induced by 10 μM ADP, human PRP) came out at 0.1 µM.

With `CC(C)(C)CN1CCC2(CC1)CN(c1ccccc1NC(=O)Nc1nc3ccc(Cl)nc3s1)c1c(O)ccc(F)c12` [Example 168, 1-(5-Chlorothiazolo[5,4-b]pyridin-2-yl)-3-(2-(4-fluoro-7-hydroxy-1′-neopentylspiro-[indoline-3,4′-piperidine]-1-yl)phenyl)urea], the Ki in assay [3] worked out at 8.6 nM. Also, in assay [1] (setting [4]), the IC50 was determined as 0.3 µM.

With `COc1ccc2nc(NC(=O)Nc3ccccc3N3CC4(CCN(CC(C)(C)C)CC4)c4c(Cl)ccc(O)c43)sc2n1` [Example 169, 1-(2-(4-Chloro-7-hydroxy-1′-neopentylspiro[indoline-3,4′-piperidine]-1-yl)phenyl)-3-(5-methoxythiazolo[5,4-b]pyridin-2-yl)urea], the Ki in assay [3] was 11.5 nM. Besides, the IC50 in assay [1] (setting [4]) was found to be 0.2 µM.

Consider `CC(C)(C)CN1CCC2(CC1)CN(c1ccccc1NC(=O)Nc1nc3ccc(F)nc3s1)c1c(O)ccc(Cl)c12` [Example 170], for which the Ki in assay [3] came out at 6.5 nM. In addition, the half-maximal inhibitory concentration (IC50) in assay [1] (setting [4]) worked out at 0.5 µM.

For `CC(C)(C)CN1CCC2(CC1)CN(c1ccccc1NC(=O)Nc1nc3ccc(Cl)nc3s1)c1c(O)cccc12` [Example 172, 1-(5-Chlorothiazolo[5,4-b]pyridin-2-yl)-3-(2-(7-hydroxy-1′-neopentylspiro[indoline-3,4′-piperidine]-1-yl)phenyl)urea], in assay [3], the Ki came to 5.3 nM. For the same molecule, in assay [1] (setting [4]), the concentration for half-maximal inhibition (IC50) came out at 0.6 µM.

Turning to `COc1ccc2nc(NC(=O)Nc3ccccc3N3CC4(CCN(CC(C)(C)C)CC4)c4c(F)ccc(O)c43)sc2n1` [Example 173, 1-(2-(4-Fluoro-7-hydroxy-1′-neopentylspiro[indoline-3,4′-piperidine]-1-yl)phenyl)-3-(5-methoxythiazolo[5,4-b]pyridin-2-yl)urea], in assay [3], the Ki was 3.8 nM. The IC50 in assay [1] (setting [4]) stood at 0.3 µM.

Take `CC(C)(C)CN1CCC2(CC1)CN(c1ccccc1NC(=O)Nc1nc3ccc(F)nc3s1)c1c(O)ccc(F)c12` [Example 174, 1-(2-(4-Fluoro-7-hydroxy-1′-neopentylspiro[indoline-3,4′-piperidine]-1-yl)phenyl)-3-(5-fluorothiazolo[5,4-b]pyridin-2-yl)urea]: in assay [3], the inhibition constant (Ki) was found to be 7 nM. Also, in assay [1] (setting [4]), the IC50 came out at 0.2 µM.

Consider `CC(C)(C)CN1CCC2(CC1)CN(c1ccccc1NC(=O)Nc1nc3ccc(Cl)nc3s1)c1c(O)ccc(C(F)(F)F)c12` [Example 175, 1-(5-Chlorothiazolo[5,4-b]pyridin-2-yl)-3-(2-(7-hydroxy-1′-neopentyl-4-(trifluoromethyl)spiro[indoline-3,4′-piperidine]-1-yl)phenyl)urea], for which the Ki in assay [3] was 13.4 nM. The IC50 in assay [1] (setting [4]) turned out to be 0.5 µM.

Take `CC(C)(C)CN1CCC2(CC1)CN(c1ncccc1NC(=O)Nc1nc3ccc(Cl)nc3s1)c1c(O)ccc(C(F)(F)F)c12` [Example 176, 1-(5-Chlorothiazolo[5,4-b]pyridin-2-yl)-3-(2-(7-hydroxy-1′-neopentyl-4-(trifluoromethyl)spiro[indoline-3,4′-piperidine]-1-yl)pyridin-3-yl)urea]: the Ki in assay [3] was 7.2 nM. Moreover, the IC50 in assay [1] (setting [4]) came out at 0.4 µM.

For the origin of these results see US9428504B2, “7-hydroxy-spiropipiperidine indolinyl antagonists of P2Y1 receptor” (BRISTOL-MYERS SQUIBB COMPANY, priority 2012, dated 2016).
